Measured values reported in ChEMBL document CHEMBL5500373, “Lead optimization based design, synthesis, and pharmacological evaluation of quinazoline derivatives as multi-targeting agents for Alzheimer's disease treatment” (Eur J Med Chem, 2024).
Activity calls are given as the source filed them. The calls are words filed in the database; no cut-off is given here.

What was measured:
Cholinesterase [1] = target: T1, Cholinesterase (Homo sapiens, UniProt P06276); experiment: Inhibition of BChE (unknown origin) at 10 uM relative to control
T1 sequence (P06276 whole entry): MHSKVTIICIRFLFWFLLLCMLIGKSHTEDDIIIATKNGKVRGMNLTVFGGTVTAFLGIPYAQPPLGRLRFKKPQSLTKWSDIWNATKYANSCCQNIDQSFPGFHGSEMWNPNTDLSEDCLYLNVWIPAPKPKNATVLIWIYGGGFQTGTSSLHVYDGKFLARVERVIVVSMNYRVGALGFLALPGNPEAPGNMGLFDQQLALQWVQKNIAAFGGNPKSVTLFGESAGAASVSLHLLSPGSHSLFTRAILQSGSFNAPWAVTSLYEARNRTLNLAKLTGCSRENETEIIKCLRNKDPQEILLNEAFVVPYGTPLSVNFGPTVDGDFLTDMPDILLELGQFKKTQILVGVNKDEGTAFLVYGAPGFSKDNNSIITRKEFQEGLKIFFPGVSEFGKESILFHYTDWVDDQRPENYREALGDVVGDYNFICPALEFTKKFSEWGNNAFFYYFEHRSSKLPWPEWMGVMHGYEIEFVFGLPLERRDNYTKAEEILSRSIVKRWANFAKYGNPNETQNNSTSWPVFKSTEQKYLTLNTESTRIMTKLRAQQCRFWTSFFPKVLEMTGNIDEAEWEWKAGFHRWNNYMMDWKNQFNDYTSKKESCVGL

Acetylcholinesterase [2] = target: T2, Acetylcholinesterase (Homo sapiens, UniProt P22303); experiment: Inhibition of AChE (unknown origin) at 10 uM relative to control
T2 sequence (P22303 whole entry): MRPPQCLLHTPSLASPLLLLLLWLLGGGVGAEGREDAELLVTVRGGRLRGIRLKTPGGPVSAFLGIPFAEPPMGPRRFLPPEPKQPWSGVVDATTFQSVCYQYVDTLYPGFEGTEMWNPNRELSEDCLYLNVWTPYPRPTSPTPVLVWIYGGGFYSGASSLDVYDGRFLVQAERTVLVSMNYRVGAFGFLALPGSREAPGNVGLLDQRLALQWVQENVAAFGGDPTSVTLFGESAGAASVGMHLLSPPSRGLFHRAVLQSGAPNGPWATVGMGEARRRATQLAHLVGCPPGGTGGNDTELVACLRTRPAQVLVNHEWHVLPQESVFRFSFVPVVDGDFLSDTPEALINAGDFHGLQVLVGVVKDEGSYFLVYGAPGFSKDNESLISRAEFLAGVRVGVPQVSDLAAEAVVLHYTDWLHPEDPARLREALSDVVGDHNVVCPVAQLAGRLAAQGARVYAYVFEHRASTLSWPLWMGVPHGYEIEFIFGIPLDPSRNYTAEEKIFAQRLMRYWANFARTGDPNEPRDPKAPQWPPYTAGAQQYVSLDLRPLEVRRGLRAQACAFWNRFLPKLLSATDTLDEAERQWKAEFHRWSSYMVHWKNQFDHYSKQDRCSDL

Acetylcholinesterase [3] = target: T2, Acetylcholinesterase; experiment: Inhibition of human erythrocyte AChE using acetylthiocholine iodide as substrate preincubated for 30 mins followed by substrate addition and measured after 30 mins by DTNB based Ellman's method
Beta-secretase 1 [4] = target: T3, Beta-secretase 1 (Homo sapiens, UniProt P56817); experiment: Inhibition of human BACE-1 measured after 2 hrs by FRET assay
T3 sequence (P56817 whole entry): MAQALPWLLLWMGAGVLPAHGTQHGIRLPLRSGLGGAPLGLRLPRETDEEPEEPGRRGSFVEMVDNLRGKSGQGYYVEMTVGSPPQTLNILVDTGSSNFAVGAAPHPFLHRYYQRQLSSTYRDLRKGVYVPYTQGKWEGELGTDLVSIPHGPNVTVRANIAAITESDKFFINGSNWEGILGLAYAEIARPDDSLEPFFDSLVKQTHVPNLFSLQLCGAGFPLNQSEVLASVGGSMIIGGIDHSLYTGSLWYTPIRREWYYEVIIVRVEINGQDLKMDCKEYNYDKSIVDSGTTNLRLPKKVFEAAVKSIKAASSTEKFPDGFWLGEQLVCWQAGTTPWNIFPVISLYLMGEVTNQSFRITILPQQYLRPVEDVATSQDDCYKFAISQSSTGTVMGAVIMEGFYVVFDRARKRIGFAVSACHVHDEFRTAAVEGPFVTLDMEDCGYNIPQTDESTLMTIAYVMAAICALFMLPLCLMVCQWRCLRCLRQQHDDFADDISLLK

Cholinesterase [5] = target: T1, Cholinesterase; experiment: Inhibition of human serum BChE using butyrylthiocholine iodide as substrate preincubated for 30 mins followed by substrate addition and measured after 30 mins by DTNB based Ellman's method
Acetylcholinesterase [6] = target: T2, Acetylcholinesterase; experiment: Inhibition of AChE (unknown origin)
[7] = target: Cholinesterase (Equus caballus) (UniProt P81908); experiment: Inhibition of horse serum BChE at 100 uM preincubated for 10 mins followed by substrate addition and measured after 15 mins by Ellman's method relative to control; conditions: time 25.0 min
Chain of Cholinesterase (Equus caballus) (P81908 whole entry): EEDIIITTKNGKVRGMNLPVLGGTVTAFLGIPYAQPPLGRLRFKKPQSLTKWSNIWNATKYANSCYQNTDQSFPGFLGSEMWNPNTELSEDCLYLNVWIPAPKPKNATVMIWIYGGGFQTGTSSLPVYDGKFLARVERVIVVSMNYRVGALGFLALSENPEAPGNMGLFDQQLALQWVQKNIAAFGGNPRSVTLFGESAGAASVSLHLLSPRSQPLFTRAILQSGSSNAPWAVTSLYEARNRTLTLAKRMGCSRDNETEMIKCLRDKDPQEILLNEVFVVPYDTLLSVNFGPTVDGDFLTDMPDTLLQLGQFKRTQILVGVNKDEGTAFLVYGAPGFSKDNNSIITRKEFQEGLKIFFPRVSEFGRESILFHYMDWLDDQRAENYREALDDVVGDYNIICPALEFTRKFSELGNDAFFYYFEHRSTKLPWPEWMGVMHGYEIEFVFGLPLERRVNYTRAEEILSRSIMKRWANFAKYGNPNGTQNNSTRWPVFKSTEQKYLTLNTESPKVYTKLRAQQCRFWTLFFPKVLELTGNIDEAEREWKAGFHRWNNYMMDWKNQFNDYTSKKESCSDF

[8] = Drug concentration in male Wistar rat brain homogenate at 10 mg/kg, po measured after 4 days; format: ADME, organism-based; conditions: time 4 day, read-out: Ct
[9] = Drug concentration in male Wistar rat brain homogenate at 20 mg/kg, po measured after 4 days; format: ADME, organism-based; conditions: time 4 day, read-out: Ct
Beta-secretase 1 [10] = target: T3, Beta-secretase 1; experiment: Inhibition of human BACE-1
Acetylcholinesterase [11] = target: T2, Acetylcholinesterase; experiment: Inhibition of human AChE
Cholinesterase [12] = target: T1, Cholinesterase; experiment: Inhibition of human BChE
in vitro = conditions: PAMPA
[13] = Antioxidant activity assessed as DPPH radical scavenging activity incubated for 30 mins in dark by UV/visible spectrophotometric analysis; format: functional
Beta-secretase 1 [14] = target: T3, Beta-secretase 1; experiment: Inhibition of human BACE-1 by FRET assay
[15] = target: Amyloid-beta precursor protein (Homo sapiens) (UniProt P05067); experiment: Inhibition of self induced amyloid beta (1 to 42 residues) (unknown origin) aggregation at 10 uM by thioflavin T based fluorescence analysis relative to control
Chain of Amyloid-beta precursor protein (Homo sapiens) (P05067 whole entry, the tested form may be a part): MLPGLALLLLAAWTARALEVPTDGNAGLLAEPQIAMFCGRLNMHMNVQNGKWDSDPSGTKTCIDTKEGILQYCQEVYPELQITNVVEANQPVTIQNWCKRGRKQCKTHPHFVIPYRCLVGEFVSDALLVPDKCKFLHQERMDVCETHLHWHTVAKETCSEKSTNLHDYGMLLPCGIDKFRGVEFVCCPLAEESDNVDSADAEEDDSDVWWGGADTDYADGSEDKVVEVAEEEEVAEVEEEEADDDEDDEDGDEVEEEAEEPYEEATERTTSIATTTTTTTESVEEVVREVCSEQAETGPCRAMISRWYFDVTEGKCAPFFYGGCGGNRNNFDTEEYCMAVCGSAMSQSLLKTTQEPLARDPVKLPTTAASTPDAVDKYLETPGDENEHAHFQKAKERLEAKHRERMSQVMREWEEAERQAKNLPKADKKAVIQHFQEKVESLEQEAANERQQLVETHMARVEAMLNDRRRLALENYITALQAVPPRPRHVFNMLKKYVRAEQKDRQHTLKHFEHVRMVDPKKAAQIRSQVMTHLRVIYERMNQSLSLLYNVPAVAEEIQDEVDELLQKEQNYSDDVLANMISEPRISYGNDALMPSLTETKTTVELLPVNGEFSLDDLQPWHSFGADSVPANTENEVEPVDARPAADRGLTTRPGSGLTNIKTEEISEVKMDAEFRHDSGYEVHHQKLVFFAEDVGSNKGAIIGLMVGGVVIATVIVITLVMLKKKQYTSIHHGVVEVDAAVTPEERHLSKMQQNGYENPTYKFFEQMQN

PC-12 = experiment: Neuroprotective activity against amyloid beta (1 to 42 residues) induced cell damage in rat PC12 cells at 100 uM by MTT assay relative to control; format: functional
Beta-secretase 1 [16] = target: T3, Beta-secretase 1; experiment: Inhibition of BACE-1 in human SH-SY5Y cells transfected with human APP695 measured after 24 hrs by ELISA; format: cell-based
[17] = Cytotoxicity against human SH-SY5Y cells by MTT assay; format: toxicity, cell-based
Beta-secretase 1 [18] = target: T3, Beta-secretase 1; experiment: Inhibition of C-terminal 10-His tagged recombinant human BACE-1 using Mca-Ser-Glu-Val-Asn-Leu-Asp-Ala-Glu-Phe-Arg-Lys(Dnp)-Arg-Arg-NH2 as substrate pretreated for 10 mins followed by substrate addition and measured every 5 mins for 120 mins
[19] = target: Amyloid-beta precursor protein (Homo sapiens) (UniProt P05067); experiment: Inhibition of amyloid beta (1 to 42 residues) (unknown origin) aggregation assessed as reduction in massive oligomers measured after 3 days by AFM analysis; conditions: time 3.0 day
[20] = target: Amyloid-beta precursor protein (Homo sapiens) (UniProt P05067); experiment: Inhibition of amyloid beta (1 to 42 residues) (unknown origin) aggregation assessed as reduction in fibrils measured after 3 days by AFM analysis; conditions: time 3.0 day

SMILES	IC50 (Acetylcholinesterase [3]) [nM]	IC50 (Beta-secretase 1 [4]) [nM]	IC50 (Cholinesterase [5]) [nM]	further results
C#CCN(C)c1nc(NC2CCCCC2)c2ccc(Cl)cc2n1				inhibition (Cholinesterase [1]): 3%; inhibition (Acetylcholinesterase [2]): 3%
COc1cc2ncnc(N3CCN(c4ccccc4[N+](=O)[O-])CC3)c2cc1OC	914	1820	> 10000	
O=C(CCN1CCCCC1)Nc1ccc2nc(-c3cc4ccccc4[nH]3)[nH]c(=O)c2c1				IC50 (Acetylcholinesterase [6]): 21 nM
COc1cc2ncnc(N3CCN(Cc4ccc(Cl)cc4)CC3)c2cc1OC	921	1650	> 10000	
Cc1ccccc1-n1c(SCC(=O)N/N=C/c2ccc(Br)cc2)nc2ccccc2c1=O				inhibition [7]: 6.8%
c1ccc(CN2CCN(c3nc(-c4ccccc4)nc4ccccc34)CC2)cc1				concentration at 96 h [8]: 15 ng/mL; concentration at 96 h [9]: 54 ng/mL; IC50 (Beta-secretase 1 [10]): 254000 nM; IC50 (Acetylcholinesterase [11]): 191 nM; IC50 (Cholinesterase [12]): > 10000 nM
COc1cc2ncnc(N3CCN(c4ccc([N+](=O)[O-])cc4)CC3)c2cc1OC	481	729	> 10000	Papp at 18 h, 25 ug/ml (in vitro): 4.81 ×10⁻⁶ cm/s
COc1cc2ncnc(N3CCN(C(C)=O)CC3)c2cc1OC	1190	3660	> 10000	
Cn1c(N/N=C/c2cccc(Cl)c2Cl)nc2ccccc2c1=O				IC50 [13]: > 100000 nM
FC(F)(F)c1ccc(-c2nnc(NC3CCN(Cc4ccccc4)CC3)o2)cc1				IC50 (Beta-secretase 1 [14]): 146 nM
COc1cc2ncnc(N3CCN(C)CC3)c2cc1OC	1270	3280	> 10000	
COc1cc2c(Nc3ccc(C(=O)/C=C/c4nc(C)c(C)nc4C)cc3)ncnc2c(OC)c1OC				inhibition [15]: 26.7%; Activity (PC-12): 77%
CC1c2cc(Oc3ccccc3)ccc2N=C(N)N1CCCC(=O)N(Cc1ccnn1C)C1CCCCC1 (centres undefined)				IC50 (Beta-secretase 1 [16]): 140 nM; IC50 [17]: 11800 nM; IC50 (Beta-secretase 1 [18]): 380 nM
COc1cc2ncnc(N3CCN(Cc4ccc(C)cc4)CC3)c2cc1OC	1020	1430	> 10000	
COc1cc2ncnc(N3CCN(C(c4ccccc4)c4ccccc4)CC3)c2cc1OC	436	662	> 10000	Papp at 18 h, 25 ug/ml (in vitro): 6.28 ×10⁻⁶ cm/s
COc1cc2ncnc(N3CCN(c4ccc(C)cc4)CC3)c2cc1OC	1170	1880	> 10000	
COc1cc2ncnc(N3CCN(Cc4ccc(F)cc4)CC3)c2cc1OC	932	2920	> 10000	
COc1cc2ncnc(N3CCN(c4ccc(F)cc4)CC3)c2cc1OC	1040	1470	> 10000	
COc1cc2ncnc(N3CCN(c4ccccc4)CC3)c2cc1OC	1010	1310	> 10000	
COc1cc(/C=C/C(=O)CC(=O)/C=C/c2ccc(O)c(OC)c2)ccc1O				inhibition [19]: Active; inhibition [20]: Active
COc1cc2ncnc(N3CCN(c4ccccn4)CC3)c2cc1OC	1150	1560	> 10000	
COc1cc2ncnc(N3CCN(c4ccc(Br)cc4)CC3)c2cc1OC	973	1710	> 10000	
